In the supplement of paper PMC10307832:

Legend:
Experiment in all cases: relative viability (nuclei count vs DMSO), 5 days (fraction); higher = more cells survive
[1] = compound: C(C(=O)C(=O)O)Br [Bromopyruvate] + O=C(CCCCCCC(=O)Nc1ccccc1)NO [Vorinostat] (partner 1 µM)
How it was run: (§1)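 Values are medians from duplicate plates. Each reflects relative viability, defined as the nuclei count of treated wells over that of vehicle wells. Lung cancer cell lines in 1536-well plates were pin-tool dosed one day after seeding with one drug alone or with a fixed anchor-drug dose plus five library-drug doses (not always all listed) in √10 steps, then fixed, stained and imaged at 4× after 5 days.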

[2] = compound: CC(O)(CS(=O)(=O)c1ccc(F)cc1)C(=O)Nc1ccc(C#N)c(C(F)(F)F)c1 [Bicalutamide] + O=C(c1cc(Cc2n[nH]c(=O)c3ccccc23)ccc1F)N1CCN(C(=O)C2CC2)CC1 [Olaparib] (partner 8 µM)
How it was run: as §1

[3] = compound: CC(O)(CS(=O)(=O)c1ccc(F)cc1)C(=O)Nc1ccc(C#N)c(C(F)(F)F)c1 [Bicalutamide] + CCNC(=O)c1noc(-c2cc(C(C)C)c(O)cc2O)c1-c1ccc(CN2CCOCC2)cc1 [Luminespib] (partner 0.01 µM)
How it was run: as §1

[4] = compound: CC(O)(CS(=O)(=O)c1ccc(F)cc1)C(=O)Nc1ccc(C#N)c(C(F)(F)F)c1 [Bicalutamide] + Cc1cc(Nc2cc(N3CCN(C)CC3)nc(Sc3ccc(NC(=O)C4CC4)cc3)n2)n[nH]1 [Tozasertib] (partner 0.1 µM)
How it was run: as §1

Cell Line: EKVX
- relative viability ([1]; first compound 1 µM): 0.668
- relative viability ([1]; first compound 3.162 µM): 0.685
- relative viability ([1]; first compound 10 µM): 0.718
- relative viability ([1]; first compound 31.62 µM): 0.729
- relative viability ([1]; first compound 100 µM): 0.713
- relative viability ([2]; first compound 0.08 µM): 0.917
- relative viability ([2]; first compound 0.253 µM): 0.861
- relative viability ([2]; first compound 0.8 µM): 1
- relative viability ([2]; first compound 2.53 µM): 0.79
- relative viability ([3]; first compound 0.08 µM): 0.94
- relative viability ([3]; first compound 0.253 µM): 0.871
- relative viability ([3]; first compound 0.8 µM): 0.964
- relative viability ([3]; first compound 2.53 µM): 0.892
- relative viability ([4]; first compound 0.08 µM): 0.372
- relative viability ([4]; first compound 0.253 µM): 0.315
- relative viability ([4]; first compound 0.8 µM): 0.386
- relative viability ([4]; first compound 2.53 µM): 0.371

Cell Line: NCI-H358
- relative viability ([1]; first compound 1 µM): 0.77
- relative viability ([1]; first compound 3.162 µM): 0.607
- relative viability ([1]; first compound 10 µM): 0.626
- relative viability ([1]; first compound 31.62 µM): 0.541
- relative viability ([1]; first compound 100 µM): 0.505
- relative viability ([2]; first compound 0.08 µM): 0.664
- relative viability ([2]; first compound 0.253 µM): 0.519
- relative viability ([2]; first compound 0.8 µM): 0.706
- relative viability ([2]; first compound 2.53 µM): 0.595
- relative viability ([3]; first compound 0.08 µM): 0.488
- relative viability ([3]; first compound 0.253 µM): 0.295
- relative viability ([3]; first compound 0.8 µM): 0.582
- relative viability ([3]; first compound 2.53 µM): 0.32
- relative viability ([4]; first compound 0.08 µM): 0.136
- relative viability ([4]; first compound 0.253 µM): 0.108
- relative viability ([4]; first compound 0.8 µM): 0.108
- relative viability ([4]; first compound 2.53 µM): 0.105

Cell Line: EPLC-272H
- relative viability ([1]; first compound 1 µM): 0.36
- relative viability ([1]; first compound 3.162 µM): 0.38
- relative viability ([1]; first compound 10 µM): 0.359
- relative viability ([1]; first compound 31.62 µM): 0.44
- relative viability ([1]; first compound 100 µM): 0.347
- relative viability ([2]; first compound 0.08 µM): 0.791
- relative viability ([2]; first compound 0.253 µM): 0.699
- relative viability ([2]; first compound 0.8 µM): 0.695
- relative viability ([2]; first compound 2.53 µM): 0.682
- relative viability ([3]; first compound 0.08 µM): 0.178
- relative viability ([3]; first compound 0.253 µM): 0.293
- relative viability ([3]; first compound 0.8 µM): 1.17
- relative viability ([3]; first compound 2.53 µM): 0.154
- relative viability ([4]; first compound 0.08 µM): 0.238
- relative viability ([4]; first compound 0.253 µM): 0.224
- relative viability ([4]; first compound 0.8 µM): 0.25
- relative viability ([4]; first compound 2.53 µM): 0.237

Cell Line: NCI-H1395
- relative viability ([1]; first compound 1 µM): 1.03
- relative viability ([1]; first compound 3.162 µM): 0.791
- relative viability ([1]; first compound 10 µM): 0.649
- relative viability ([1]; first compound 31.62 µM): 0.683
- relative viability ([1]; first compound 100 µM): 0.681
- relative viability ([2]; first compound 0.08 µM): 0.449
- relative viability ([2]; first compound 0.253 µM): 0.483
- relative viability ([2]; first compound 0.8 µM): 0.466
- relative viability ([2]; first compound 2.53 µM): 0.429
- relative viability ([3]; first compound 0.08 µM): 0.726
- relative viability ([3]; first compound 0.253 µM): 0.774
- relative viability ([3]; first compound 0.8 µM): 0.854
- relative viability ([3]; first compound 2.53 µM): 0.621
- relative viability ([4]; first compound 0.08 µM): 0.829
- relative viability ([4]; first compound 0.253 µM): 0.736
- relative viability ([4]; first compound 0.8 µM): 0.827
- relative viability ([4]; first compound 2.53 µM): 0.696

Cell Line: NCI-H2228
- relative viability ([1]; first compound 1 µM): 0.454
- relative viability ([1]; first compound 3.162 µM): 0.723
- relative viability ([1]; first compound 10 µM): 0.764
- relative viability ([1]; first compound 31.62 µM): 0.581
- relative viability ([1]; first compound 100 µM): 0.372
- relative viability ([2]; first compound 0.08 µM): 0.748
- relative viability ([2]; first compound 0.253 µM): 0.536
- relative viability ([2]; first compound 0.8 µM): 1.16
- relative viability ([2]; first compound 2.53 µM): 0.524
- relative viability ([3]; first compound 0.08 µM): 0.231
- relative viability ([3]; first compound 0.253 µM): 0.241
- relative viability ([3]; first compound 0.8 µM): 0.169
- relative viability ([3]; first compound 2.53 µM): 0.14
- relative viability ([4]; first compound 0.08 µM): 0.208
- relative viability ([4]; first compound 0.253 µM): 0.349
- relative viability ([4]; first compound 0.8 µM): 0.202
- relative viability ([4]; first compound 2.53 µM): 0.253

Cell Line: LXF-289
- relative viability ([1]; first compound 1 µM): 0.777
- relative viability ([1]; first compound 3.162 µM): 0.796
- relative viability ([1]; first compound 10 µM): 0.714
- relative viability ([1]; first compound 31.62 µM): 0.81
- relative viability ([1]; first compound 100 µM): 0.677
- relative viability ([2]; first compound 0.08 µM): 1.04
- relative viability ([2]; first compound 0.253 µM): 1.08
- relative viability ([2]; first compound 0.8 µM): 1.18
- relative viability ([2]; first compound 2.53 µM): 1.01
- relative viability ([3]; first compound 0.08 µM): 0.667
- relative viability ([3]; first compound 0.253 µM): 0.6
- relative viability ([3]; first compound 0.8 µM): 0.637
- relative viability ([3]; first compound 2.53 µM): 0.694
- relative viability ([4]; first compound 0.08 µM): 0.206
- relative viability ([4]; first compound 0.253 µM): 0.182
- relative viability ([4]; first compound 0.8 µM): 0.198
- relative viability ([4]; first compound 2.53 µM): 0.157

Cell Line: NCI-H2023
- relative viability ([1]; first compound 1 µM): 0.547
- relative viability ([1]; first compound 3.162 µM): 0.687
- relative viability ([1]; first compound 10 µM): 0.619
- relative viability ([1]; first compound 31.62 µM): 0.464
- relative viability ([1]; first compound 100 µM): 0.615
- relative viability ([2]; first compound 0.08 µM): 0.534
- relative viability ([2]; first compound 0.253 µM): 0.493
- relative viability ([2]; first compound 0.8 µM): 0.495
- relative viability ([2]; first compound 2.53 µM): 0.394
- relative viability ([3]; first compound 0.08 µM): 0.868
- relative viability ([3]; first compound 0.253 µM): 0.703
- relative viability ([3]; first compound 0.8 µM): 1
- relative viability ([3]; first compound 2.53 µM): 0.634
- relative viability ([4]; first compound 0.08 µM): 0.448
- relative viability ([4]; first compound 0.253 µM): 0.376
- relative viability ([4]; first compound 0.8 µM): 0.306
- relative viability ([4]; first compound 2.53 µM): 0.249

Cell Line: SW 900
- relative viability ([1]; first compound 1 µM): 0.393
- relative viability ([1]; first compound 3.162 µM): 0.487
- relative viability ([1]; first compound 10 µM): 0.559
- relative viability ([1]; first compound 31.62 µM): 0.377
- relative viability ([1]; first compound 100 µM): 0.476
- relative viability ([2]; first compound 0.08 µM): 0.798
- relative viability ([2]; first compound 0.253 µM): 0.721
- relative viability ([2]; first compound 0.8 µM): 1.21
- relative viability ([2]; first compound 2.53 µM): 0.803
- relative viability ([3]; first compound 0.08 µM): 0.175
- relative viability ([3]; first compound 0.253 µM): 0.153
- relative viability ([3]; first compound 0.8 µM): 0.172
- relative viability ([3]; first compound 2.53 µM): 0.17
- relative viability ([4]; first compound 0.08 µM): 0.651
- relative viability ([4]; first compound 0.253 µM): 0.556
- relative viability ([4]; first compound 0.8 µM): 0.592
- relative viability ([4]; first compound 2.53 µM): 0.542

Cell Line: NCI-H3122
- relative viability ([1]; first compound 1 µM): 1.05
- relative viability ([1]; first compound 3.162 µM): 0.991
- relative viability ([1]; first compound 10 µM): 1.11
- relative viability ([1]; first compound 31.62 µM): 0.829
- relative viability ([1]; first compound 100 µM): 0.718
- relative viability ([2]; first compound 0.08 µM): 0.536
- relative viability ([2]; first compound 0.253 µM): 0.657
- relative viability ([2]; first compound 0.8 µM): 0.712
- relative viability ([2]; first compound 2.53 µM): 0.617
- relative viability ([3]; first compound 0.08 µM): 0.0979
- relative viability ([3]; first compound 0.253 µM): 0.0782
- relative viability ([3]; first compound 0.8 µM): 0.126
- relative viability ([3]; first compound 2.53 µM): 0.106
- relative viability ([4]; first compound 0.08 µM): 0.422
- relative viability ([4]; first compound 0.253 µM): 0.408
- relative viability ([4]; first compound 0.8 µM): 0.445
- relative viability ([4]; first compound 2.53 µM): 0.44
